Test results as given in ChEMBL document CHEMBL1201862, “PubChem BioAssay data set” (2004).
The source made the active and inactive calls.

Assays:
[1] = cytotoxicity toward DRD oncogenic fibroblasts, dose response, cell-based, non-viral oncogenic, luminescence (AID 1934); format: functional; details: Homo sapiens
BJ [2] = assay: cells; format: functional, cell-based; details: Homo sapiens
BJ [3] = assay: cytotoxicity toward BJ-TERT-LT-ST fibroblasts, dose response, cell-based, RAS-independent, luminescence (AID 1935); format: functional; details: Homo sapiens;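 note: BJ fibroblasts immortalized with TERT plus LT and ST oncogenes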
BJ [4] = assay: cytotoxicity toward BJ-TERT fibroblasts, dose response, cell-based, RAS-independent, luminescence (AID 1933); format: functional; details: Homo sapiens
[5] = biological target: T1, Short transient receptor potential channel 4 (Mus musculus, UniProt Q9QUQ5); assay: mouse TRPC4 channel inhibitors, dose response, cell-based, HEK293 TRPC4/mu-opioid, Fluo-4 calcium (AID 434942); format: functional;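 note: potency of inhibitors blocking the TRPC4 calcium response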
T1 sequence (Q9QUQ5 whole entry): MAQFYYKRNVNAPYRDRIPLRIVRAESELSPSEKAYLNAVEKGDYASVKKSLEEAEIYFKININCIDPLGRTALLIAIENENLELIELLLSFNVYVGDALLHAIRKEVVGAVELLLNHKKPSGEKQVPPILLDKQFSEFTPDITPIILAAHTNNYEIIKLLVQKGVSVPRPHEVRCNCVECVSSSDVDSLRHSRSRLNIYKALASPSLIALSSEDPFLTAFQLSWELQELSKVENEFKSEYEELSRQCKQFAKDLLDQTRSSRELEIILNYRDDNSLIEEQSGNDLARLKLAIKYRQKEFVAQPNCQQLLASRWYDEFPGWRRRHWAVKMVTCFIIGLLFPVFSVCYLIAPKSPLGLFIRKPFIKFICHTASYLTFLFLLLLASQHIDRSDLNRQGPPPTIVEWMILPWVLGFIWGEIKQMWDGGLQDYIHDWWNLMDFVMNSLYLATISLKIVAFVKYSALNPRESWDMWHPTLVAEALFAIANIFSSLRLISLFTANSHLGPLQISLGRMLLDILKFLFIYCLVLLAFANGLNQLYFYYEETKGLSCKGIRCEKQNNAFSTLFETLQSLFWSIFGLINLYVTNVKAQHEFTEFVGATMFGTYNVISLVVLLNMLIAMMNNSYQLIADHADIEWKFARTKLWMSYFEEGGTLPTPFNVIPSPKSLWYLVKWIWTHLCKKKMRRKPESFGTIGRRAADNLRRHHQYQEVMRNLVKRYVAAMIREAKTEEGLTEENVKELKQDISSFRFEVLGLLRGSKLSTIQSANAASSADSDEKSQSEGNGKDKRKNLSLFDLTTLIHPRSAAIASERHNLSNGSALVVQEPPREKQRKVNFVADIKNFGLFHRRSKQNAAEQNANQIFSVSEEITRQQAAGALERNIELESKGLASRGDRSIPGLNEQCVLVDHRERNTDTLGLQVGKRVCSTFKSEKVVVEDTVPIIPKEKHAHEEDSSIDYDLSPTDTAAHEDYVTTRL

[6] = THP-1 cell cytotoxicity, dose response, cytotoxicity control for non-replicating M. tuberculosis project (AID 489025); format: functional
HEK293 = assay: inhibitors of LMP1-driven NF-kB reporter, dose response, cell-based, HEK293, luciferase, cherry-pick (AID 588343); format: functional; details: Homo sapiens
Cytochrome P450 3A4 = Cytochrome P450 3A4 (Homo sapiens, UniProt P08684); details: Potency;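 note: confirmatory qHTS run detecting inhibitors and substrates of CYP3A4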
Sequence of Cytochrome P450 3A4 (P08684 whole entry): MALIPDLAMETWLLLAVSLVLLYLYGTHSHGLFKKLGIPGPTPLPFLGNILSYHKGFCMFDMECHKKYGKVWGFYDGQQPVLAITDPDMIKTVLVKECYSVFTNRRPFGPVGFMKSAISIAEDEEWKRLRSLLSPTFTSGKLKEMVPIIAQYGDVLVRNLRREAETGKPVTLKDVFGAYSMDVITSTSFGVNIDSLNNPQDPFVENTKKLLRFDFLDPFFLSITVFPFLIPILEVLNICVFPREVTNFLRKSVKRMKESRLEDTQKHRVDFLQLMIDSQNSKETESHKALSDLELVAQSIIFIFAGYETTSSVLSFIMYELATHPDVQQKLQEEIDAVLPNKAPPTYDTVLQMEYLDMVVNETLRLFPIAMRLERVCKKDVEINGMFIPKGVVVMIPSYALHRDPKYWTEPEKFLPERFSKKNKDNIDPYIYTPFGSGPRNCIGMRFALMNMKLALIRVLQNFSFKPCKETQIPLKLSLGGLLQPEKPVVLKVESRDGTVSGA

[7] = biological target: T2, Zinc finger protein mex-5 (Caenorhabditis elegans, UniProt Q9XUB2); assay: MEX-5/TCR-2 RNA interaction inhibitors, dose response, biochemical, C. elegans, fluorescence polarization (AID 1960)
T2 sequence (Q9XUB2 whole entry): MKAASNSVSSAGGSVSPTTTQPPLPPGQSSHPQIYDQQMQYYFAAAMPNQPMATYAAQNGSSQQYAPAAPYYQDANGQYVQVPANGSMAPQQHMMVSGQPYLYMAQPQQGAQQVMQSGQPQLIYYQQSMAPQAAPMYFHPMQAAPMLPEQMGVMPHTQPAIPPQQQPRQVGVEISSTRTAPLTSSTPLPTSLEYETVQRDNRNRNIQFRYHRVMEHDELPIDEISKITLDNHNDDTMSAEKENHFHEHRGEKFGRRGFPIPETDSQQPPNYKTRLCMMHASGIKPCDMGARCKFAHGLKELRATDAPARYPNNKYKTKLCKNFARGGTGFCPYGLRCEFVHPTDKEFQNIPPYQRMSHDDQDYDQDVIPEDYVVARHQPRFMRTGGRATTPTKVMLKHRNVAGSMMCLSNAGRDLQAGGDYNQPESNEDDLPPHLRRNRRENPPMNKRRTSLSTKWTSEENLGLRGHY

[8] = biological target: T3, RNA-binding protein pos-1 (Caenorhabditis elegans, UniProt G5EF15); assay: inhibitors of POS-1/mex-3 RNA binding, dose response, biochemical, fluorescence polarization (AID 1964);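 note: purified POS-1 fused to maltose binding protein made in E. coli; potency of compounds blocking POS-1 binding to fluorescent RNA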
T3 sequence (G5EF15 whole entry): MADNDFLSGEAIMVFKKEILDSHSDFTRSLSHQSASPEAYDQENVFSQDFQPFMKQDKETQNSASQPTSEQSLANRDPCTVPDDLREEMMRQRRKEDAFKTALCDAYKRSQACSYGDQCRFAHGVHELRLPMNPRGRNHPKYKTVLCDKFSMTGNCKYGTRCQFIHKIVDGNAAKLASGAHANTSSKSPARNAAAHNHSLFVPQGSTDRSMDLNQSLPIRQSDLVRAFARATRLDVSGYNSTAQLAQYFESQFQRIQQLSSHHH

Paired box protein Pax-8 = Paired box protein Pax-8 (Homo sapiens, UniProt Q06710); assay: inhibitors of PAX8-driven TPO luciferase reporter, dose response, RMG-I cells, cherry-pick (AID 687027); format: functional, cell-based;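 note: luciferase reporter driven by Pax8 target thyroperoxidase promoter measured by SteadyGlo luminescence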
Sequence of Paired box protein Pax-8 (Q06710 whole entry): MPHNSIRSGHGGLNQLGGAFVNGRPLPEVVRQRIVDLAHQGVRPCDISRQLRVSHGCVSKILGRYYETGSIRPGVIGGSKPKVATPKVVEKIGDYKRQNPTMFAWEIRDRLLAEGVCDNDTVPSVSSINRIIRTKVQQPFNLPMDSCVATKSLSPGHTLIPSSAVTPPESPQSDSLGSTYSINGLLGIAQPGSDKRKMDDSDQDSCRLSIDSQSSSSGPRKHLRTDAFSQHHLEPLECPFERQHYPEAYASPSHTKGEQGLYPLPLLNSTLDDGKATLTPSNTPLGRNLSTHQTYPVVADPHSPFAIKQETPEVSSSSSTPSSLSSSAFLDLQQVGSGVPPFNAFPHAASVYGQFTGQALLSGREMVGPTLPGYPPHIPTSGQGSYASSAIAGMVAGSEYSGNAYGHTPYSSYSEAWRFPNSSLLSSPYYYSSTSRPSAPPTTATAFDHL

[9] = biological target: Glyceraldehyde-3-phosphate dehydrogenase (Homo sapiens, UniProt P04406)
Sequence of Glyceraldehyde-3-phosphate dehydrogenase (P04406 whole entry): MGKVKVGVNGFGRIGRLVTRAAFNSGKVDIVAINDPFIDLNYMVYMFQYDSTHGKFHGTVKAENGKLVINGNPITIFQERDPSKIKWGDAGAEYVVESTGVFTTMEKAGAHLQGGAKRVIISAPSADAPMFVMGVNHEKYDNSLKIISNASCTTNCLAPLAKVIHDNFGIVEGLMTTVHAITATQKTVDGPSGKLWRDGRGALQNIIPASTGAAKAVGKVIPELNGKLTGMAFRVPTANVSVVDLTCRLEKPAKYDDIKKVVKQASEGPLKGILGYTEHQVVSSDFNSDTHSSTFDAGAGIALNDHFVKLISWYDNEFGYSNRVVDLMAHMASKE

Genome polyprotein = Genome polyprotein (dengue virus type 2, UniProt P29990); assay: Dengue-2 NS5 methyltransferase inhibitors, primary screen, biochemical, confirmation dose response (AID 588689); format: functional
Sequence of Genome polyprotein (P29990 2492-3391 limits assumed): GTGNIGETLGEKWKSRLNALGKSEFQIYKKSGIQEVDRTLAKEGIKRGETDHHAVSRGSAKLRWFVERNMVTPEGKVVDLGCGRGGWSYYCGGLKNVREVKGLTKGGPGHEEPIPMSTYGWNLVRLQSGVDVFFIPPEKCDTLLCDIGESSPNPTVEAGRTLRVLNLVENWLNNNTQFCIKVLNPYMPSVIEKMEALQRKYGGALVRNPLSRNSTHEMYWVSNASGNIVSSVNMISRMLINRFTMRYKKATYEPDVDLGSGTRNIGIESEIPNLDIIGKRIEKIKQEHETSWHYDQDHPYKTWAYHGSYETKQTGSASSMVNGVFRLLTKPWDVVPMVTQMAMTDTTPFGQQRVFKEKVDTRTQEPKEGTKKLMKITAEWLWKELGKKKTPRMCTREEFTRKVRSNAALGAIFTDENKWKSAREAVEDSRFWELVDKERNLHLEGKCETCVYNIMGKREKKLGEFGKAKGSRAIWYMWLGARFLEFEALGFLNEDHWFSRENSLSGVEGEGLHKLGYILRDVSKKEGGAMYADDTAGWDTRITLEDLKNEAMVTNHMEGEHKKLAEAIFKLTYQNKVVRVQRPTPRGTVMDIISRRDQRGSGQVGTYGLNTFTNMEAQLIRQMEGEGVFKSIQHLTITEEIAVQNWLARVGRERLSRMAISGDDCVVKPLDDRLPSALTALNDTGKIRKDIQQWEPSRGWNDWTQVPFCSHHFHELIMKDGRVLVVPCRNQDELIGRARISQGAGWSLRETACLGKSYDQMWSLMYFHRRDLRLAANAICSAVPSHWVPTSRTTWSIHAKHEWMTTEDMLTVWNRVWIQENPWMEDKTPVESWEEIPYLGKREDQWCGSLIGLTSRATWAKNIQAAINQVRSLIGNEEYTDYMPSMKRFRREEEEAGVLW

[10] = growth suppression of PTEN-null colon cells, dose response, cell-based, HCT116 PTEN knockout (AID 1047); format: functional;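 note: HCT116 colon tumor cells with PTEN knocked out; cells exposed to compound for 60 hours before readout; potency for loss of cell viability measured by luminescence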
[11] = growth suppression of beta-catenin-knockout colon cells, dose response, cell-based, HCT116, human colon tumor (AID 1045); format: functional;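 note: HCT116 colon tumor cells with beta catenin knocked out; cells exposed to compound for 60 hours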
[12] = test system: Streptococcus sp. 'group A'; assay: growth inhibition of control SK(-) GAS strain, dose response, counter-screen for streptokinase expression inhibitor project, luminescence, kanamycin, BacTiterGlo, confirmation (AID 1900); format: functional, organism-based
Streptococcus = assay: Group A Streptococcus viability loss, dose response, counter-screen for streptokinase expression inhibitor project, luminescence, BacTiterGlo (AID 1915); format: functional, organism-based;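 note: potency for reduction of bacterial viability or growth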
[13] = NIH-3T3 fibroblast cytotoxicity, dose response, cytotoxicity control, cell-based, fluorescence, Alamar Blue, secondary assay (AID 2327); format: functional;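 note: NIH-3T3 mouse fibroblasts cultured with fluconazole at 8 µg/mL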
[14] = biological target: Heat shock protein HSP 90-alpha (Homo sapiens, UniProt P07900); format: functional, organism-based
Large T antigen = Large T antigen (Simian virus 40, UniProt P03070); format: functional, Betapolyomavirus macacae;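 note: Confirmatory-stage PubChem screen for compounds that inhibit SV40 T antigen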
Sequence of Large T antigen (P03070 whole entry): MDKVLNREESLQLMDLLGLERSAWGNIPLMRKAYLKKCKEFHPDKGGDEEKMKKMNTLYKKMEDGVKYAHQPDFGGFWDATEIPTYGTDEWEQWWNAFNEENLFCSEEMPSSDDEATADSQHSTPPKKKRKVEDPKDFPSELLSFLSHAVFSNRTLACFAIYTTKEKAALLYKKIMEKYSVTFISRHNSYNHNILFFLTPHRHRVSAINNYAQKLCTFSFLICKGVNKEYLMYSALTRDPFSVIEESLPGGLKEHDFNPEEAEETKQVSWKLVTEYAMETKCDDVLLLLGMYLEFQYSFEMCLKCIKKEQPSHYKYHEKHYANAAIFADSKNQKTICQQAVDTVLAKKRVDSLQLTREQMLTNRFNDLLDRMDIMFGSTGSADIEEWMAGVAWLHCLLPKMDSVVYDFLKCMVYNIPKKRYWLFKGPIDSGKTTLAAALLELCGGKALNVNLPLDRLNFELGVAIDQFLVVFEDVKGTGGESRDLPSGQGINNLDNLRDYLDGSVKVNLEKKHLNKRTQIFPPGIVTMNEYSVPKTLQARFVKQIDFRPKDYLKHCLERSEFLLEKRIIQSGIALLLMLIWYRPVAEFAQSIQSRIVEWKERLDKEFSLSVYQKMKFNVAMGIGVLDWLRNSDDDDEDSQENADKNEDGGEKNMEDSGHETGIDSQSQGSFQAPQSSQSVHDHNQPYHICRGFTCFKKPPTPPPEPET

Streptokinase A = biological target: T4, Streptokinase A (Streptococcus pyogenes serotype M1, UniProt P10520); assay: S. pyogenes streptokinase expression inhibitors, potency, dose response, plasminogen activation absorbance, OD405 (AID 1914); format: functional, Streptococcus pyogenes M1 GAS;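 note: secreted streptokinase activity via plasminogen activation per viability signal from cell pellet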
T4 sequence (P10520 whole entry): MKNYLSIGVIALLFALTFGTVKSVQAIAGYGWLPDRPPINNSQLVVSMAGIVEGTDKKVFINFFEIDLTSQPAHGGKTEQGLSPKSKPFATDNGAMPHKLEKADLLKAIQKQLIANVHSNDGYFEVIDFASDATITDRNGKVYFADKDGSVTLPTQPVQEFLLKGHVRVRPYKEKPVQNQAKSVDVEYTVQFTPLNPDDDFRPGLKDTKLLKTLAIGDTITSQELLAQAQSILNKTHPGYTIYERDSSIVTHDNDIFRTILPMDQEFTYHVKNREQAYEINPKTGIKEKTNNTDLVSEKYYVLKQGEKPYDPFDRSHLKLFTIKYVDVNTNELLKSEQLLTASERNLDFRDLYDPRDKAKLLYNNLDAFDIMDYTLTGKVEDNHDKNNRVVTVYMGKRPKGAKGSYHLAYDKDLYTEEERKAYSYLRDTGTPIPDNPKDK

INS1 = assay: beta cell apoptosis inhibitors, cytokine rescue, dose response, luminescence, retest (AID 449756); format: functional, cell-based; details: Rattus norvegicus;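 note: cell death triggered by IL-1 beta plus TNF-alpha plus IFN-gamma mixture; protective hits raise ATP signal compared with cytokine alone wells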
[15] = biological target: T5, Polyadenylate-binding protein 1 (Homo sapiens, UniProt P11940); assay: PABP1 MLLE–PAM2 binding inhibitor potency, dose response, biochemical, fluorescence polarization, FITC-PAM2 peptide (AID 602259); format: functional; details: read-out: IC50_Mean
T5 sequence (P11940 whole entry): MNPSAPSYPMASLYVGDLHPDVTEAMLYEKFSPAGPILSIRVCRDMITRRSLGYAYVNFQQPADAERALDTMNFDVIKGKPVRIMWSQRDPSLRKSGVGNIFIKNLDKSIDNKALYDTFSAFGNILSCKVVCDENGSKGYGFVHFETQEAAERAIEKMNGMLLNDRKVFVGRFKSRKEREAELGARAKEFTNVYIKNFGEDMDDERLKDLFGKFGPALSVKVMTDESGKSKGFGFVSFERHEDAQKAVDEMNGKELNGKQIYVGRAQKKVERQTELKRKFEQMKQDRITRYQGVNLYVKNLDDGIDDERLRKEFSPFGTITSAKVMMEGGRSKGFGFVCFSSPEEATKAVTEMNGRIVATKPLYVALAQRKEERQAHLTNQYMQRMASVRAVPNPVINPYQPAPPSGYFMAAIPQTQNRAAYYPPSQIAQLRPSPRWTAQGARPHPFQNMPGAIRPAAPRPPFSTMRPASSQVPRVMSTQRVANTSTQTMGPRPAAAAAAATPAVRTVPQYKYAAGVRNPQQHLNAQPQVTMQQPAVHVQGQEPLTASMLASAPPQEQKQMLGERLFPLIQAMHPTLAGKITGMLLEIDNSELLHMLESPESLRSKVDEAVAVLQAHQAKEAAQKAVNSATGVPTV

[16] = biological target: T5, Polyadenylate-binding protein 1; assay: PABP1 MLLE–PAM2 interaction inhibitors, dose response, miRNA deadenylation inhibitor project, biochemical, fluorescence polarization, Cy5-PAM2 peptide, secondary (AID 602260); format: functional; details: read-out: IC50_Mean
Vero = Vero cell cytotoxicity, cytotoxicity control for flavivirus capping enzyme inhibitors (AID 588742); format: functional; details: Chlorocebus sabaeus
[17] = inhibitors of intracellular T. cruzi replication, confirmation, NIH3T3 host cells, beta-gal luminescence (AID 2044); format: functional, cell-based;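 note: intracellular parasites grown in NIH/3T3 mouse fibroblasts as host cells; luminescent beta-galactosidase reporter signal from transgenic T. cruzi replicating inside host cells; inhibitors lower the luminescence signal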
[18] = cytotoxicity toward NIH3T3 fibroblasts, dose response, counter-screen, cell-based, ATP luminescence, mouse fibroblasts (AID 2010); format: functional;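 note: cells exposed to compound for about 90 hours before reading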

O=C(Cc1ccc(Br)cc1)NCc1ccccc1
EC50 [1]: 4.57 µM (active)
EC50 (BJ [2]): 56.3 µM (inconclusive)
EC50 (BJ [3]): 45.4 µM (inconclusive)
EC50 (BJ [4]): 11.9 µM (active)

COc1ccc(CN2CCCC(C(=O)c3sccc3C)C2)cc1O (centres undefined)
EC50 [5]: 11.9 µM (active)

Cc1nc(Cl)nc(N(C)c2ccccc2)c1[N+](=O)[O-]
CC50 [6]: 22.9 µM (active)
EC50 [5]: 13.3 µM (active)

Cc1c(NC(=O)c2cc(-c3cccs3)nc3ccccc23)c(=O)n(-c2ccccc2)n1C
AC50 (HEK293): > 350 µM (inactive)

COC1=CC(=O)C(C(=O)c2ccccc2)=CC1=O [2-BENZOYL-5-METHOXYBENZOQUINONE]
AC50 (Cytochrome P450 3A4): 10 µM (inconclusive)

O=C(O)c1cccc(-n2cccc2C=C2C(=O)c3ccccc3C2=O)c1
EC50 [7]: 48.5 µM (active)
EC50 [8]: 37 µM (active)

Cc1cccn2cc(-c3c[nH]c4ccccc34)nc12
EC50 [5]: 5.96 µM (active)

COc1ccc(S(=O)(=O)Nc2ccc3c(c2)C(=O)N([C@H](C)CO)C[C@H](C)[C@H](CN(C)S(=O)(=O)c2ccc(F)cc2)OCCCC[C@H](C)O3)cc1
AC50 (Paired box protein Pax-8): 4.78 µM (active)

COc1cc(O)cc(OC)c1OC [ANTIAROL]
AC50 (Cytochrome P450 3A4): 31.6 µM (inconclusive)

NC1=NC(=O)/C(=C/c2ccc(-c3cc([N+](=O)[O-])ccc3Cl)o2)S1
IC50 [9]: > 100 µM (not active)

O=C(NNS(=O)(=O)c1ccc([N+](=O)[O-])cc1)C(=O)Nc1cccc(C(=O)O)c1
EC50 [7]: 12.3 µM (inconclusive)
EC50 [8]: 9.52 µM (inconclusive)

N#Cc1c(SC(C(=O)O)c2ccccc2)nc2c(c1-c1cccs1)CCCC2 (centres undefined)
IC50 (Genome polyprotein): 39.2 µM (active)

Cc1cccc(/C=N/NC(=O)CNc2cccc3ccccc23)n1
AC50 (HEK293): 107 µM (active)

CCCSc1nc(N)nc(-c2cccs2)c1C#N
EC50 [5]: 2.66 µM (active)

COc1cc(C(=O)N2CCN(c3ccc(C)cc3C)CC2)cc(OC)c1OC
EC50 [1]: 3.97 µM (active)
EC50 (BJ [2]): 138 µM (inconclusive)
EC50 [10]: 2.65 µM (active)
EC50 (BJ [3]): 21.8 µM (inconclusive)
EC50 (BJ [4]): 11.9 µM (active)
EC50 [11]: 3.45 µM (active)

O=C(/C=C/c1cccc(Cl)c1)c1ccc([N+](=O)[O-])o1
EC50 [12]: 3.18 µM (active)
EC50 (Streptococcus): 6.98 µM (active)
EC50 [13]: 4.56 µM (inconclusive)
EC50 [1]: 2.5 µM (inconclusive)
AC50 [14]: 1.28 µM (active)
EC50 (BJ [2]): 9.18 µM (inconclusive)
IC50 (Large T antigen): 40.9 µM (active)
EC50 (BJ [4]): > 150 µM (inconclusive)
EC50 (Streptokinase A): 3.36 µM (active)
AC50 (INS1): 2.31 µM (active)

CC1CC(C)(C)NCCNC(C)CC(C)(C)NCCN1 (centres undefined)
IC50 [9]: > 10 µM (inconclusive)

CC1=CC(=O)C(Sc2ccc(C)cc2)=CC1=O
IC50 [15]: > 66 µM (inactive)
IC50 [16]: > 66 µM (inactive)
IC50 (Genome polyprotein): 14.5 µM (active)

Cc1cccc2nc(CSc3ccc(Cl)cc3)cn12
EC50 [5]: 4.22 µM (active)

Oc1cc(Cl)c(Cl)c(Cl)c1Cl
AC50 [14]: 2.06 µM (active)
AC50 (Cytochrome P450 3A4): 12.6 µM (inconclusive)

O=C1C(O)=CC(=C(c2ccccc2)c2ccccc2)c2ccccc21
CC50 (Vero): > 40 µM (active)
IC50 (Genome polyprotein): > 100 µM (active)

C/C(=N\c1ccc(Br)cc1)c1sc2ccccc2c1O
EC50 [7]: > 300 µM (inconclusive)
EC50 [8]: > 300 µM (not active)
EC50 [17]: 4.08 µM (active)
EC50 [18]: > 60 µM (not active)

Cc1ccc(CNC(C)c2ccccc2)cc1 (centres undefined)
EC50 [5]: 6.68 µM (active)

COc1cccc(/C=C2/C(=O)NN(c3ccc(C)c(C)c3)C2=O)c1
IC50 (Genome polyprotein): > 100 µM (active)

Brc1cc2c(cc1C1Nc3ccccc3C3C=CCC31)OCO2 (centres undefined)
EC50 [12]: 7.1 µM (active)
EC50 [7]: > 300 µM (not active)
EC50 (Streptococcus): 25.4 µM (active)
EC50 [8]: > 300 µM (not active)
EC50 (Streptokinase A): 2.55 µM (active)

Nc1c2c(nc3ccccc13)CCC2
EC50 [5]: 4.22 µM (active)

Cc1cc(C)c(N2C(=O)NC(=O)/C(=C\NNC(=O)c3ccncc3)C2=O)c(C)c1
EC50 [7]: 36.6 µM (active)
EC50 [8]: 64.7 µM (active)

N=c1c(S(=O)(=O)c2ccccc2)cc2c(=O)n3ccccc3nc2n1Cc1cccnc1
EC50 [7]: 6.91 µM (inconclusive)
EC50 [8]: 68.1 µM (inconclusive)

CCCn1c(-c2ccc(F)cc2)nc2c(NCCN(CC)CC)nc(C)nc21
AC50 (Cytochrome P450 3A4): 15.8 µM (inconclusive)

CC1(C)C[C@@H]2C(=O)CCC3O[C@@]3(C)CCC21 (some centres undefined)
AC50 (Cytochrome P450 3A4): 12.6 µM (inconclusive)

O=C(CC(=O)c1ccccc1)c1ccccc1 [DIBENZOYLMETHANE]
AC50 (Cytochrome P450 3A4): 12.6 µM (inconclusive)
